Data as given in patent publication US12371464B2, “Polypeptides and uses thereof” (MEDIMMUNE LIMITED, priority 2020, dated 2025).
Numbered stars: 1 amine (or outer) side, 2 acyl side, 3 side chain; on linkers, the order of the positions; unused ones are H or OH. Bridge positions count the residues as written; N and C are the ends. Side chains are listed from the residue outwards. Peptide text beside a SMILES is read from it. * marks the point of attachment. C20 diacid = O=C(O)CCCCCCCCCCCCCCCCCCC(=O)*; γGlu = O=C(O)[C@H](CCC(=O)[*:2])N[*:1]

Assays:
[1] = target: T1, human amylin receptor (calcitonin receptor co-expressed with receptor activity modifying protein, RAMP3) (hAMYR3) (Homo sapiens, UniProt O60896+P30988); assay: cAMP production in 1321N1 cells with stable recombinant expression of human amylin receptor (hAMYR3); type: cell-based; settings: cAMP production, 1321N1 cells expressing human amylin3 receptor
T1 construct: expressed in transfected cells
T1 sequence (P30988 25-474): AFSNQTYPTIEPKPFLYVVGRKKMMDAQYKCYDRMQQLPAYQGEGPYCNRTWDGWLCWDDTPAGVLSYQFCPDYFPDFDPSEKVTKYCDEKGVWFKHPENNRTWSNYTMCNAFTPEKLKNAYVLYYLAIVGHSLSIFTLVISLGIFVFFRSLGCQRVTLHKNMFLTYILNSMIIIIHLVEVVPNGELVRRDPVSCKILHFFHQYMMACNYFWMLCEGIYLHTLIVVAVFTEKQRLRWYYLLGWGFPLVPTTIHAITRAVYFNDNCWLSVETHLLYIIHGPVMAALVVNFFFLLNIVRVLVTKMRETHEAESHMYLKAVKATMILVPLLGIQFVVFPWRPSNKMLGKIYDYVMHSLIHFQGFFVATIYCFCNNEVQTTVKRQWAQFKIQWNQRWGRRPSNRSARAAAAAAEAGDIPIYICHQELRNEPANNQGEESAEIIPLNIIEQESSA
T1 sequence (O60896 24-148 partner): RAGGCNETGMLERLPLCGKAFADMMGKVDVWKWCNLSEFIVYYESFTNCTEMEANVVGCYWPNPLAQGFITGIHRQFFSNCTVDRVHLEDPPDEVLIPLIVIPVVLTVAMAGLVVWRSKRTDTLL
Experimental: The functional activities of lipidated pramlintide analogue peptides, such as cAMP production, were tested in 1321N1 cell line with stable recombinant expression of human calcitonin receptor (hCTR) or human amylin receptor (calcitonin receptor co-expressed with receptor activity modifying protein, RAMP3) (hAMYR3) or HEK cells with stable recombinant expression of rat calcitonin receptor (rat CTR) or rat amylin receptor (calcitonin receptor co-expressed with receptor activity modifying protein, RAMP3) (Rat AMYR3).
Cryopreserved cell stock was thawed rapidly in a water-bath, suspended in assay buffer (0.1% BSA (Sigma #A3059) in HBSS (Sigma #H8264) with 25 mM HEPES, pH 7.4 and containing 0.5 mM IB MX (Sigma #17018)) and spun at 240×g for 5 minutes. Cells were re-suspended in assay buffer at a batch-dependent optimized concentration (e.g. hCTR cells at 0.125×10^5 cells/mL, hAMYR3 cells at 0.125×10^5 cells/mL, rat CTR cells at 1×10^5 cells/mL, rat AMYR3 at 2×10^5 cells/mL).
The test peptide stock was prepared in DMSO and diluted in assay buffer to reach stated concentrations and transferred in duplicates into a 384-black shallow well microtitre assay plate (Corning #3676). Cells were added to the assay plate, incubated at room temperature for 30 minutes and the CAMP level measured using CAMP dynamic 2 HTRF kit (Cisbio, Cat #62AM4PEJ), following the two step protocol as per manufacturer's recommendations. The plates were read on an Envision (Perkin Elmer) using excitation wavelength of 320 nm and emission wavelengths of 620 nm & 665 nm.
Data was transformed to % Delta F as described in the manufacturer's guidelines and analyzed as percent activation of maximal amylin or calcitonin effect by 4-parameter logistic fit to determine EC50 values. The selectivity of a peptide to hAMYR vs hCTR is defined as a ratio of EC50 values at the two receptors.

[2] = system: lean rats; assay: Rat acute food intake study; type: in vivo, Sprague Dawley rats; settings: 20 nmol/kg subcutaneously
Experimental: Male Sprague Dawley rats were obtained from Taconic Denmark, ApS at approximately 7 weeks of age. . . . Rats were implanted with a microchip for identification, housed 4/cage with enrichment, free access to food and water, and allowed one week acclimatisation while non-invasive characterization was performed. Rats were on a 12:12 light:dark cycle that switches at 1 pm:1 am. Food intake was monitored via the HM2 system (Lafayette Instrument) that allows for monitoring in a home cage. As each rat enters an access tunnel to feed, an IR beam is broken, and the implanted microchip is read. Resulting changes to food weight is then assigned to the specific animal. Social order has shown no impact to overall feeding patterns and amounts.
Rats were sorted into groups based on Day-1 body weight and 24-hour accumulated food intake (n=7 per group). On Day 0 rats were weighed, then fasted for 6 hours. Thirty (30) minutes prior to the reintroduction of food, rats were dosed subcutaneously (5 ml/kg) with 20 nmol/kg of test compound or 60 nmol/kg peptide 1 (pramlintide) diluted in an appropriate vehicle, after which food was returned, and lights went out. Automated food intake was monitored for the following 3 days, and rats were weighed once per day.
Food intake per rat was batched into 1-hour intervals and integrated into Gubra's GubraView data management system. Discrete food intake data was exported into MS Excel from which cumulative food intake data was generated. Cumulative food intake data was then transposed into GraphPad Prism (v8.0.1) for analysis of dark period feeding

[3] = in vivo; settings: male, Sprague-Dawley, rat, 20 nmol/kg
Experimental: PK studies were performed to determine the half-life (T1/2) of test peptides. T1/2 describes the time taken for the maximum plasma concentration (Cmax) of a test substance to halve its steady-state concentration when in circulation.
The animals were 6-8 weeks old with body weights of 200-300 g on the dosing date. The animals were housed in a 12-hour light/12-hour dark cycle environment and were fasted overnight before dosing. The body weight of the animals were recorded before dosing, 24 h and 48 h post dosing.
Test articles were administered at 20 nmol/kg. Blood samples were collected from each animal via Jugular vein.
The blood samples were transferred into eppendorf low binding tube containing K2EDTA. Above 0.150 mL blood were collected at each time point. Blood samples were centrifuged at 4,000 g for 5 minutes at 4° C. to obtain plasma. The plasma samples were stored frozen at −75±15° C. until analysis.
Concentrations of the test articles in the plasma samples were analyzed using a LC-MS/MS method. […] The pharmacokinetic parameters of test articles were calculated using a non-compartmental approach with Phoenix™ WinNonlin®6.1.
The following pharmacokinetic parameters were calculated, whenever possible from the plasma concentration versus time data: • IV administration: T1/2, C0, AUClast, AUCinf, MRTinf, CI, Vss, Number of Points for Regression. • SC administration: Tmax, Cmax, AUClast, AUCinf, MRTinf, F, Number of Points for Regression.

| EC50 [1] [nM] | half-life ([3]; iv) [h] | half-life ([3]; sc) [h] | SMILES | Cummulative food intake (% vehicle treated intake) At 12 h [2] [% vehicle treated intake] | Cummulative food intake (% vehicle treated intake) At 24 h [2] [% vehicle treated intake] | Cummulative food intake (% vehicle treated intake) At 48 h [2] [% vehicle treated intake] |
| --- | --- | --- | --- | --- | --- | --- |
| 0.703 | 14.9 | 20.3 | CC[C@H](C)[C@H](NC(=O)[C@H](C)NC(=O)[C@@H]1CCCN1C(=O)[C@H](Cc1ccccc1)NC(=O)[C@H](CC(N)=O)NC(=O)[C@@H]1CCCN1C(=O)[C@H](CO)NC(=O)[C@H](CO)NC(=O)[C@H](Cc1c[nH]cn1)NC(=O)[C@@H](NC(=O)[C@H](CC(C)C)NC(=O)[C@H](Cc1ccccc1)NC(=O)[C@H](CC(N)=O)NC(=O)[C@H](C)NC(=O)[C@H](CC(C)C)NC(=O)[C@H](CCCNC(=N)N)NC(=O)[C@H](CCC(N)=O)NC(=O)[C@@H](NC(=O)[C@H](C)NC(=O)[C@@H]1CSSC[C@H](NC(=O)[C@@H](N)CCCCNC(=O)CC[C@H](NC(=O)CC[C@H](NC(=O)CCCCCCCCCCCCCCCCCCC(=O)O)C(=O)O)C(=O)O)C(=O)N[C@@H](CC(N)=O)C(=O)N[C@@H]([C@@H](C)O)C(=O)N[C@@H](C)C(=O)N[C@@H]([C@@H](C)O)C(=O)N1)[C@@H](C)O)C(C)C)C(=O)N[C@@H](CC(C)C)C(=O)N[C@@H](CO)C(=O)N1CCC[C@H]1C(=O)N[C@H](C(=O)N[C@@H](CC(N)=O)C(=O)N[C@H](C(=O)NCC(=O)N[C@@H](CO)C(=O)N[C@@H](CC(N)=O)C(=O)N[C@H](C(=O)N[C@@H](Cc1ccc(O)cc1)C(N)=O)[C@@H](C)O)C(C)C)[C@@H](C)O [Peptide 115] (H-K([γGlu-γGlu-C20 diacid])CNTATCATQRLANFLVHSSPNFPAILSPTNVGSNTY-NH2; disulfide 2-7; N-terminus assumed) | 42.4 | 41.3 | 52.2 |
| 1.32 | 13 | 21.6 | CC[C@H](C)[C@H](NC(=O)[C@@H]1CCCN1C(=O)CNC(=O)[C@H](Cc1ccccc1)NC(=O)[C@H](CC(N)=O)NC(=O)[C@H](CC(N)=O)NC(=O)[C@H](CO)NC(=O)[C@H](CO)NC(=O)[C@H](Cc1c[nH]cn1)NC(=O)[C@@H](NC(=O)[C@H](CC(C)C)NC(=O)[C@H](Cc1ccccc1)NC(=O)[C@H](CC(N)=O)NC(=O)[C@H](C)NC(=O)[C@H](CC(C)C)NC(=O)[C@H](CCCNC(=N)N)NC(=O)[C@H](CCC(N)=O)NC(=O)[C@@H](NC(=O)[C@H](C)NC(=O)[C@@H]1CSSC[C@H](NC(=O)[C@@H](N)CCCCNC(=O)CC[C@H](NC(=O)CC[C@H](NC(=O)CCCCCCCCCCCCCCCCCCC(=O)O)C(=O)O)C(=O)O)C(=O)N[C@@H](CC(N)=O)C(=O)N[C@@H]([C@@H](C)O)C(=O)N[C@@H](C)C(=O)N[C@@H]([C@@H](C)O)C(=O)N1)[C@@H](C)O)C(C)C)C(=O)N[C@@H](CC(C)C)C(=O)N1CCC[C@H]1C(=O)N1CCC[C@H]1C(=O)N[C@H](C(=O)N[C@@H](CC(N)=O)C(=O)N[C@H](C(=O)NCC(=O)N[C@@H](CO)C(=O)N[C@@H](CCCNC(=N)N)C(=O)N[C@H](C(=O)N[C@@H](Cc1ccc(O)cc1)C(N)=O)[C@@H](C)O)C(C)C)[C@@H](C)O [Peptide 114] (H-K([γGlu-γGlu-C20 diacid])CNTATCATQRLANFLVHSSNNFGPILPPTNVGSRTY-NH2; disulfide 2-7; N-terminus assumed) | 42.3 | 45.1 | 53.8 |
